# Assay results reported in patent publication US20260144805A1, “CANNABIDIOL COMPOSITIONS FOR USE IN THE TREATMENT OF NEURODEGENERATIVE AND NEUROLOGICAL DISORDERS” (JAZZ PHARMACEUTICALS RESEARCH UK LIMITED, priority 2022, published 2026).
# Assays:
# rTg4510 mice = test: Open Field (OF) test, locomotor activity in rTg4510 mouse model of Alzheimer's Disease (Example 2; DS = DS-C); format: in vivo; conditions: Week 31; for Locomotor activity totals, % vs Wild-type / Locomotor activity totals, % vs rTg4510 / Locomotor activity totals, Mean: Risperidone 0.125 mg/kg i.p.
# Experimental: The aim of this study was to evaluate the efficacy of the present drug substance to modulate the agitation-like behaviours in the rTg4510 regulatable mouse model of Alzheimer's Disease (AD). Animals were tested in a behavioural assay, the Open Field (OF) test to measure locomotor activity (LMA). Activity was first assessed at a 21-week-old baseline to determine whether a hyperactive phenotype (to be used as a proxy for agitation) had developed and was further assessed at 2 subsequent ages in acute and chronic efficacy phases.
# Ninety male rTg4510 (CC) mice and 15 wild-type (WW) (Tg(Camk2a-tTA)1Mmay Fgf14^Tg(tetO-MAPT*P301L)4510Kha/J, Jax strain #024854, licensed from the Mayo Clinic, USA) were split into 2 cohorts, 4 weeks apart in age; cohort 1 contained 53 mice (8 WW and 45 CC) and cohort 2 contained 52 mice (7 WW and 45 CC). Relative humidity was 55±15% throughout. Mice were housed in individually ventilated cages on a 12 h/12 h light/dark cycle (lights on at 07.00 h; illumination by red light during the dark phase), at an ambient temperature of 24±4° C. with free access to standard rodent maintenance diet and filtered water. Animals were allowed to acclimatise to the above conditions for 7-10 days prior to the study start. All housing groupings were preserved until the mice were approximately 5 months old, at which point they were singly housed.
# Doxycycline administration: a subset of animals in cohort 2 (n=15) was administered 2× daily oral bolus doses of doxycycline hyclate (10 mg/kg p.o. in 5% glucose, Sigma Aldrich) at 13 weeks of age, followed by continuous exposure to normal lab chow containing 200 ppm doxycycline (Envigo Teklad 2018 TD.00502 no colourants, irradiated and vacuum-packed). All other animals received Envigo Teklad 2018 diet. All diet was provided ad libitum.
# Following this regime, animals were evaluated in Open Field (OF) test, before being deeply anaesthetised at the end of the behavioural testing prior to biofluid sampling and tissue harvesting.
# Specifically, the material was solubilised by the addition of 50 μL of 10% glacial acetic acid and making up to volume with 0.9% saline (Aquapharm, Animal Care, York, UK, Lot 21030311).
# Drug Substance (DS): (i.e., DS-C, See Table B in Example 1) Dosing volume was 10 mL/kg and DS was formulated at the 150 mg/kg dose in a vehicle of ethanol: Kolliphor HS15: 0.9% saline (1:12:87, w/w/v) which were stored at room temperature and added at approximately 60° C. to form solutions which were subsequently stable at room temperature. All dosing formulations were protected from light whenever possible. Dosing solutions were made fresh on the day of dosing, with lower dose formulations being prepared by dilution from the 150 mg/kg dosing solution at room temperature.
# Locomotor activity was assessed by OF test in the light phase of the light-dark cycle at weeks 21, 26 and 31. An automated beam break apparatus (40 cages) was used for the assessment of locomotor activity in rats and mice. Each cage had 4 beams; 1 ‘y’ and 3 ‘x’ which triggered a signal through capacitors when the beam was broken. Signals were collected by data loggers and processed accordingly. All animals were placed in the apparatus and spontaneous activity was assessed for a four-hour period between 0900 and 1300. Animals were then removed from the apparatus and returned to their home cages. LMA assessment was split over 2 consecutive days at each time point.
# For locomotor data, a log (x+1) transformation was used. For weeks 21 & 26, means and SEMs were calculated from the transformed data. Analysis was by Friedman's two-way nonparametric ANOVA with treatment and test day as factors to compare each group to the WW animals, and (where appropriate) Doxycycline with the untreated rTg4510 group. For week 30, data excluding the WW and Doxycycline groups for each time period were analysed by robust regression model using M estimation, Huber weighting, using the default parameter c=1.345. […]
# rat VPA model = test: Open field test (locomotor activity, circling, grooming, centre zone) P56-57 in rat VPA model (Example 5; DS = DS-E); format: in vivo; conditions: adult, risperidone 0.125 mg/kg
# Experimental: Time-mated female Wistar rats were administered a single dose of valproic acid (VPA, 600 mg/kg, i.p.) on gestational day 12.5. Male offspring were delivered and confirmation of the VPA induced developmental deficit was rapidly achieved by examination of characteristic “tail kinks” in the juvenile animals. The timeline of experiments is outlined in FIG. 8 and animals were randomly allocated to treatment groups (Table O).
# Control animals were administered sterile saline (0.9% w/v, i.p.) in utero and the vehicle control (ethanol: Kolliphor HS15: saline (1:1:18, v/v/v), i.p.
# Animals were scored for locomotor activity and exploratory behavior in a two 10-minute trials within an open field arena over two days. Each day the animals were placed into a […] black Perspex box with 30 cm side walls, under low light and monitored via remote video capture for spontaneous activity. Linked to Ethovision XT image analysis software this was analysed for total distance moved and number and duration of center zone crossings. Manual scoring of the videos was then conducted (blinded to treatment group) to determine frequency of circling behavior (number of 360 degree turns) and time spent grooming.
# All data was assessed for outliers (ROUT; Prism V9.02) and then normality using D'Agostino and Pearson normality test for n=8, or Shapiro-Wilks test for n<8 or unequal groups. Data that were non-normally distributed were analysed using Kruskal-Wallis followed by planned comparisons with Dunn's correction. Normally distributed data were analysed using one-way ANOVA or two-way ANOVA followed by planned comparisons with Sidak's correction. […] Statistical significance was defined as p<0.05 using Prism 9.0.2 software for analysis.
smiles,measurement,setting,value
Cc1nc2n(c(=O)c1CCN1CCC(c3noc4cc(F)ccc34)CC1)CCCC2 [Risperidone],"Locomotor activity totals, % vs Wild-type",rTg4510 mice; 0-30 minutes,95.7%
same,"Locomotor activity totals, % vs rTg4510",rTg4510 mice; 0-30 minutes,40.1%
same,"Locomotor activity totals, Mean",rTg4510 mice; 0-30 minutes,525.99
same,"Locomotor activity totals, % vs Wild-type",rTg4510 mice; 0-60 minutes,135.0%
same,"Locomotor activity totals, % vs rTg4510",rTg4510 mice; 0-60 minutes,49.4%
same,"Locomotor activity totals, Mean",rTg4510 mice; 0-60 minutes,1313.59
same,hyperlocomotion vs rTg4510(vehicle),"rTg4510 mice; 0-60 minutes, risperidone 0.125 mg/kg/d",significantly reversed
same,"Locomotor activity totals, % vs Wild-type",rTg4510 mice; 30-60 minutes,183.6%
same,"Locomotor activity totals, % vs rTg4510",rTg4510 mice; 30-60 minutes,46.9%
same,"Locomotor activity totals, Mean",rTg4510 mice; 30-60 minutes,641.92
same,"Locomotor activity totals, % vs Wild-type",rTg4510 mice; 60-90 minutes,104.9%
same,"Locomotor activity totals, % vs rTg4510",rTg4510 mice; 60-90 minutes,24.1%
same,"Locomotor activity totals, Mean",rTg4510 mice; 60-90 minutes,140.56
same,"Locomotor activity totals, % vs Wild-type",rTg4510 mice; 60-120 minutes,134.8%
same,"Locomotor activity totals, % vs rTg4510",rTg4510 mice; 60-120 minutes,39.8%
same,"Locomotor activity totals, Mean",rTg4510 mice; 60-120 minutes,384.49
same,"Locomotor activity totals, % vs Wild-type",rTg4510 mice; 90-120 minutes,241.3%
same,"Locomotor activity totals, % vs rTg4510",rTg4510 mice; 90-120 minutes,79.0%
same,"Locomotor activity totals, Mean",rTg4510 mice; 90-120 minutes,132.22
same,"Locomotor activity totals, % vs Wild-type",rTg4510 mice; 120-150 minutes,222.8%
same,"Locomotor activity totals, % vs rTg4510",rTg4510 mice; 120-150 minutes,130.5%
same,"Locomotor activity totals, Mean",rTg4510 mice; 120-150 minutes,210.31
same,"Locomotor activity totals, % vs Wild-type",rTg4510 mice; 150-180 minutes,399.5%
same,"Locomotor activity totals, % vs rTg4510",rTg4510 mice; 150-180 minutes,103.1%
same,"Locomotor activity totals, Mean",rTg4510 mice; 150-180 minutes,82.39
same,"Locomotor activity totals, % vs Wild-type",rTg4510 mice; 180-210 minutes,136.3%
same,"Locomotor activity totals, % vs rTg4510",rTg4510 mice; 180-210 minutes,103.4%
same,"Locomotor activity totals, Mean",rTg4510 mice; 180-210 minutes,27.84
same,"Locomotor activity totals, % vs Wild-type",rTg4510 mice; 210-240 minutes,37.5%
same,"Locomotor activity totals, % vs rTg4510",rTg4510 mice; 210-240 minutes,56.3%
same,"Locomotor activity totals, Mean",rTg4510 mice; 210-240 minutes,6.99
same,grooming behaviour,rat VPA model; day 1,significantly reduced
same,frequency of centre zone crossings,"rat VPA model; day 1, vs VPA/Veh",significant decrease
same,circling behaviour,rat VPA model; day 2,significantly reversed
same,grooming behaviour,rat VPA model; day 2,significantly reduced
same,number of centre zone crossings,rat VPA model; day 2,significantly reduced
same,time spent in the centre zone,rat VPA model; day 2,significantly reduced
same,increase in locomotor activity (distance travelled),rat VPA model; day one,significantly prevented
same,time spent in the centre zone,rat VPA model; day one,significantly reduced
same,increase in locomotor activity (distance travelled),rat VPA model; day two,significantly prevented
